Experimental findings from patent publication US4540697A, “Aminopropanol derivatives of 2-hydroxy-β-phenyl-propiophenones, pharmaceutical compositions and use” (priority 1984, dated 1985) are described below.

In brackets after ≈: the same amount, converted by molar mass. Structures can show the parent of a compound that is named as a salt.

In assay [1] the test system is aconitine arrhythmia in rats. Kind of assay: Antiarrhythmic action on aconitine arrhythmia in rats. Type of assay: in vivo, rat (strain: Sprague Dawley). As to conditions: Rattus norvegicus, po, 1 h, peroral administration, aconitine infused 60 minutes after substance, read-out: ED 50%: dose which causes a 50% extension in the period of aconitine infusion. On the procedure: Moreover, the novel compounds were administered orally or intravenously to male rats (strain: Sprague Dawley, weight: 200-230 g) to determine the antiarrhythmic activity. 45 minutes later, the animals were anesthetized by intraperitoneal administration of 100 mg/kg of thiobutabarbital sodium. Aconitine served as the arrhythmogenic substance, and was infused intravenously at a dosage rate of 0.005 mg/kg/minute 60 minutes after administration of the substance. In untreated animals (n=52), arrhythmias appeared in the ECG after 2.74±0.07 minutes. These arrhythmias can be delayed by antiarrhythmic drugs, as a function of the dose.
The dose which extends the infusion period by 50% (ED 50%) was determined from the linear relationship between the logarithm of the dose (mg/kg) of the trial substance and the relative extension of the period of aconitine infusion (Δ%).
(§1) The known antiarrhythmic drug propafenone [2-(2-hydroxy-3-propylamino-propoxy)-3-phenyl-propiophenone hydrochloride]was used as the comparative substance.

Assay [2] concerns isolated left atrium of male guineapigs. Kind of assay: Antiarrhythmic action on the isolated guineapig atrium (drop in maximum rhythmicity). Also on record: species or system guineapig (strain: Pirbright white). As to conditions: Cavia porcellus, Tyrode's solution pH 7.4, 32° C., read-out: Maximum rhythmicity (ED 50%): concentration which causes a 50% drop in the maximum rhythmicity. On the procedure:
The antiarrhythmic activity of the compounds according to the invention was determined on the isolated left atrium of male guineapigs (strain: Pirbright white, weight: 350 to 450 g).
Atria suspended in an organ bath (volume: 125 ml) with carbogen-saturated Tyrode's solution (pH 7.4, 32° C.) were pre-loaded with 1.0 g and subjected to square-wave pulses having a base rhythm of 1 Hz and twice the excitation threshold (rheobase: 0.2-1.4 V, chronaxia: 0.3-0.5 msec).
The frequency (Hz) up to which contraction follows each stimulus (maximum rhythmicity, MR) was determined, by automatically and continuously increasing the frequency, as a criterion of the antiarrhythmic activity. The concentration which causes a drop in the maximum rhythmicity of 50% (EC 50%) was calculated from the linear relationship between the logarithm of the concentration (mg/l) and the relative drop in the maximum rhythmicity (%).
as §1

`CCCNCC(O)COc1ccccc1C(=O)CCc1ccc(C)cc1` (stereo not drawn) [Example 34, 2-(2'-Hydroxy-3'-n-propylamino-propoxy)-β-(4-methylphenyl)-propiophenone hydrochloride]: in assay [1], the ED50 worked out at 21.5 mg/kg. In addition, in assay [2], the EC50 was 1.72 µg/mL.

On to `CSCC(C)NCC(O)COc1ccccc1C(=O)CCc1ccccc1` (stereo not drawn) [Example 10, 2-[2'-Hydroxy-3'-(3-thiomethoxyprop-2-ylamino)-propoxy]-β-phenyl-propiophenone hydrochloride], for which, in assay [1], the ED50 is 46.4 mg/kg. The EC50 in assay [2] amounted to 1.13 µg/mL.

For the compound `CCCNCC(O)COc1ccccc1C(=O)CCc1ccc(N(C)C)cc1` (stereo not drawn) [Example 35, 2-(2'-Hydroxy-3'-n-propylamino-propoxy)-β-(4-dimethylaminophenyl)-propiophenone hydrochloride], the ED50 in assay [1] was 1.99 mg/kg. In addition, in assay [2], the EC50 is 1.65 µg/mL.

As for `CN(C)c1ccc(CCC(=O)c2ccccc2OCC(O)CN2CCCCC2)cc1` (stereo not drawn) [Example 55, 2-(2'-Hydroxy-3'-piperidino-propoxy)-β-(4-dimethylaminophenyl)-propiophenone], the ED50 in assay [1] amounted to 5.7 mg/kg. For the same compound, the EC50 in assay [2] was 0.854 µg/mL (≈ 2.08 µM).

Regarding `CN1CCN(CC(O)COc2ccccc2C(=O)CCc2ccc(N(C)C)cc2)CC1` (stereo not drawn) [Example 67, 2-[2'-Hydroxy-3'-(4-methyl-piperazin-1-yl)-propoxy]-β-(4-dimethylaminophenyl)-propiophenone hydrochloride], the ED50 in assay [1] came to 2.15 mg/kg. Moreover, in assay [2], the EC50 turned out to be 0.658 µg/mL.

As for `CCCNCC(O)COc1ccccc1C(=O)CCc1cc(OC)c(OC)c(OC)c1` (stereo not drawn) [Example 49, 2-(2'-Hydroxy-3'-n-propylaminopropoxy)-β-(3,4,5-trimethoxyphenyl)-propiophenone], the ED50 in assay [1] was found to be 31.6 mg/kg. In addition, the EC50 in assay [2] was 1.82 µg/mL (≈ 4.22 µM).

Consider `CCCNCC(O)COc1ccccc1C(=O)CCc1ccc(F)cc1` (stereo not drawn) [Example 33, 2-(2'-Hydroxy-3'-n-propylamino-propoxy)-β-(4-fluorophenyl)-propiophenone hydrochloride], for which the ED50 in assay [1] is 24.5 mg/kg. For the same compound, the EC50 in assay [2] was found to be 2.05 µg/mL.

Regarding `CCCCNCC(O)COc1ccccc1C(=O)CCc1ccc(N(C)C)cc1` (stereo not drawn) [Example 58, 2-(2'-Hydroxy-3'-n-butylamino-propoxy)-β-(4-dimethylaminophenyl)-propiophenone hydrochloride], the ED50 in assay [1] is 2.33 mg/kg. The EC50 in assay [2] was 1.92 µg/mL.

Regarding `CN(C)c1ccc(CCC(=O)c2ccccc2OCC(O)CNC2CC2)cc1` (stereo not drawn) [Example 57, 2-(2'-Hydroxy-3'-cyclopropylamino-propoxy)-β-(4-dimethylaminophenyl)-propiophenone hydrochloride], in assay [1], the ED50 is 1.78 mg/kg. The EC50 in assay [2] is 2.04 µg/mL.

For the compound `COCC(C)NCC(O)COc1ccccc1C(=O)CCc1ccc(N(C)C)cc1` (stereo not drawn) [Example 60, 2-[2'-Hydroxy-3'-(3-methoxy-prop-2-ylamino)-propoxy]-β-(4-dimethylaminophenyl)-propiophenone hydrochloride], in assay [1], the ED50 stood at 3.25 mg/kg. Moreover, the EC50 in assay [2] amounted to 1.82 µg/mL.

Take `CN1CCN(CC(O)COc2ccccc2C(=O)CCc2ccccc2)CC1` (stereo not drawn) [Example 25, 2-[2'-Hydroxy-3'-(4-methyl-piperazin-1-yl)-propoxy]-β-phenyl-propiophenone bis-hydrochloride]: in assay [1], the ED50 was 11.2 mg/kg. The EC50 in assay [2] was found to be 1.01 µg/mL.

In the case of `O=C(CCc1ccccc1)c1ccccc1OCC(O)CN1CCC(O)CC1` (stereo not drawn) [Example 23, 2-[2'-Hydroxy-3'-(4-hydroxypiperidino)-propoxy]-β-phenyl-propiophenone hydrochloride], in assay [1], the ED50 is 31.6 mg/kg. Besides, the EC50 in assay [2] was determined as 1.64 µg/mL.

`O=C(CCc1ccccc1)c1ccccc1OCC(O)CNC1CC1` (stereo not drawn) [Example 3, 2-(2'-Hydroxy-3'-cyclopropylamino-propoxy)-β-phenylpropiophenone hydrochloride]: in assay [1], the ED50 is 38.2 mg/kg. Also, the EC50 in assay [2] was determined as 1.51 µg/mL.

Take `COCCNCC(O)COc1ccccc1C(=O)CCc1ccccc1` (stereo not drawn) [Example 9, 2-[2'-Hydroxy-3'-(2-methoxyethylamino)-propoxy]-β-phenyl-propiophenone hydrochloride]: the ED50 in assay [1] came to 27 mg/kg. The EC50 in assay [2] was 0.757 µg/mL.
